This passage reports outcome and EC50 results from PubChem BioAssay AID857 (Vanderbilt High Throughput Screening Facility, 2007).

Molecules are shown by their SMILES. The source made the active and inactive calls.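 Rule for the calls: active = a full or partial dose-response curve in at least two of three replicate runs; inactive = the rest.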

Sequence of D(1B) dopamine receptor (Homo sapiens) (P21918 whole entry, looked up): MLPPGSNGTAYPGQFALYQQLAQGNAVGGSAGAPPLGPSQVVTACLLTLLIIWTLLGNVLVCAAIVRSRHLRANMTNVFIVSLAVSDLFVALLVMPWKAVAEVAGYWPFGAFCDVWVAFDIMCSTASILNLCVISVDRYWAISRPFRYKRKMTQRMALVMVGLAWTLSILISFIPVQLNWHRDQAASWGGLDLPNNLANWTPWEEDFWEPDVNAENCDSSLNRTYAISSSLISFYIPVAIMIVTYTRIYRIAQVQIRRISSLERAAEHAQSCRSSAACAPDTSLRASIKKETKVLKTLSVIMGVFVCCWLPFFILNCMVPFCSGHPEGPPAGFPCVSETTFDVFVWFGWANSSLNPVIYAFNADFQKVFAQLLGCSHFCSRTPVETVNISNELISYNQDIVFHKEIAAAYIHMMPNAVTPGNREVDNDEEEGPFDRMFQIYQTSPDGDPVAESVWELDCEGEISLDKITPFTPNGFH

The assay addresses D(1B) dopamine receptor (Homo sapiens) (UniProt P21918). Kind of assay: D5 receptor allosteric modulators, concentration-response – cell-based, HEK293, CRE-luciferase, luminescence, EC30 dopamine, selectivity assay for D1 allosteric modulator project, dose response (AID 857).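 Note: HEK 293 cells expressing human D5 with a CRE-driven luciferase reporter.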
With `COc1ccccc1-n1c(=O)[nH]c2c(C(N)=O)nc(CC(C)C)nc21`, the outcome was inactive.

For `O=C(CCNS(=O)(=O)c1ccc2c(c1)CCC(=O)N2)NCc1ccc2c(c1)OCO2`, the outcome was inactive. The same measure, in the same setting: under `CC(C)Cc1nc(N2CCN(C(=O)C(C)C)CC2)c(C#N)c2c1CCC2` stands “inactive”; under `CCCOc1ccccc1NC(=O)c1ccc(N)cc1`, “inactive”. As for `CCCCn1c(O)c(C(C)=NCc2ccc(F)cc2)c(=O)[nH]c1=O`, the result was inactive. On to `COc1ccc(C2=NOC(C(=O)NC3CCCCC3)C2)cc1OC` (stereo unspecified), for which the outcome was inactive. On the same count and under the same terms, the result for `CC1(C)CC(=O)C2=C(C1)OC(N)=C(C#N)C2c1cccc(OC(=O)c2ccco2)c1` (stereo unspecified) reads “inactive”; that for `Cc1cc2cc(CN(CCN3CCOCC3)C(=O)Nc3ccccc3F)c(=O)[nH]c2cc1C`, “inactive”; that for `CCCn1c(=NC(C)=O)c(C(=O)OCC)cc2c(=O)n3ccccc3nc21`, “inactive”. For the compound `Cn1c(=O)c2c(nc(SCCCO)n2Cc2ccccc2Cl)n(C)c1=O`, the outcome was inactive. In the case of `O=C(NCc1cccs1)C1CC(c2ccccc2O)=NO1` (stereo unspecified), the result was inactive. Regarding `COc1ccc(CN2CCN(S(=O)(=O)c3ccccc3)CC2)c(OC)c1`, the result was inactive.

Regarding `CCOC(=O)C1=C(C)Nc2nc(SC)nn2C1c1ccc(C(=O)OC)cc1` (stereo unspecified), the outcome was inactive. As for `C/C(N)=C(/C#N)C(=O)CSc1nnc(SCc2ccc(Cl)cc2)s1`, the result was inactive. Same read-out and setting: under `O=S(=O)(c1cccs1)N1CCN(c2ccccn2)CC1` stands “inactive”; under `COC(=O)c1cc(NC(=O)CSc2nc(C)cc(=O)[nH]2)cc(C(=O)OC)c1`, “inactive”; under `CCC(=O)Nc1nc2c(OC)ccc(OC)c2s1`, “inactive”. For the compound `CSc1nc2oc3c(c2c2nncn12)CC(C)(C)SC3`, the result was inactive. In the case of `CCCCNC(=O)c1ccc2nc(-c3ccco3)c(-c3ccco3)nc2c1`, the result was inactive. For `COc1ccc2c(C(F)(F)F)cc(=O)oc2c1C`, the result was inactive. For the compound `CSc1ccc(C2C(C#N)=C(N)N(c3ccccc3)C3=C2C(=O)CCC3)cc1` (stereo unspecified), the result was inactive. Take `CNc1nc(C)c(C(=O)OCC(=O)OC)s1`: the outcome was inactive.

As to `CCNc1nc(NC(C)(C)C)nc(N(CC)n2cnnc2)n1`, the result was inactive. Still for that read-out and setting: the result for `COc1ccccc1-c1nnc2n1N=C(C(C)(C)C)CS2` reads “inactive”. Regarding `Cc1noc(C)c1S(=O)(=O)N1CCCC(C(=O)NCc2ccccn2)C1` (stereo unspecified), the result was inactive.

For the compound `COc1ccc(-c2noc(-c3ccco3)n2)cc1OC`, the outcome was inactive. With `Cc1ccc(C2C(C#N)=C(N)Oc3n[nH]c(-c4cccs4)c32)s1` (stereo unspecified), the outcome was inactive. As to `CSc1oc(-c2ccco2)nc1S(=O)(=O)c1ccc(Br)cc1`, the outcome was inactive.

Take `COc1ccc(S(=O)(=O)N2CCSC2c2ccc(OC)c(OC)c2)cc1` (stereo unspecified): the result was inactive. As for `CC(C)Cn1c(=O)c(C(=O)Nc2cnccn2)c(O)c2ccccc21`, the result was inactive. Turning to `CCOC(=O)c1c(NC(=O)CSc2nnc(CN3CCOCC3)n2C)sc2c1CCCC2`, the result was inactive. In the case of `O=CN1Cc2[nH]c3ccccc3c2N(c2ccc(Cl)cc2)C1=O`, the result was inactive. For the compound `CCCc1nc2sc3c(SCC(=O)NCc4ccco4)ncnc3c2c2c1CCC2`, the outcome was inactive. Same read-out and setting: under `CCC(C)Nc1nc(OC)nc(N(C)C#N)n1` (stereo unspecified) stands “inactive”; under `CCOC(=O)c1c(C)c(C(=O)NCc2ccc3c(c2)OCO3)c(C)n1C`, “inactive”; under `CCCc1nc2sc3ccccc3c(=O)c2c(=O)n1Cc1ccco1`, “inactive”. The same measure, in the same setting: the result for `CCCCn1c(=O)c(C(=O)Nc2cnccn2)c(O)c2ccccc21` reads “inactive”; that for `Cc1cc(C)nc(SCC(=O)Nc2ncc3c(n2)CC(C)(C)CC3=O)n1`, “inactive”.

For `CS(=O)(=O)c1sc2nc(-c3cccs3)cc(-c3ccccc3)c2c1N`, the outcome was inactive.

On to `COC(=O)c1c(NC(=O)Cc2cccs2)sc2c1CCC(C)C2` (stereo unspecified), for which the outcome was inactive.

In the case of `CCOC(=O)CCSc1nc(C)c2ccccc2n1`, the result was inactive.

Take `c1ccc(-c2nn3c(-c4ccccc4)nnc3s2)cc1`: the outcome was inactive.

Consider `N#Cc1nc(-c2cccs2)oc1NCC1CCCO1` (stereo unspecified), for which the outcome was inactive. Consider `O=C(Nc1cc(Cl)ccc1N1CCOCC1)c1cnccn1`, for which the result was inactive.

Consider `COc1ccc(-c2noc(COc3ccc4ccccc4c3Br)n2)cc1OC`, for which the outcome was inactive. For `Clc1cccc(Nc2c3c(nc4ncnn24)CCC3)c1`, the result was inactive. Turning to `C=CCn1c(SCc2nc3c(c(=O)[nH]c(=O)n3CCCC)n2CCC)nnc1-c1ccccc1`, the outcome was inactive. Turning to `CCOC(=O)C(O)(CCC(O)(C(=O)OCC)C(=O)OCC)C(=O)OCC`, the outcome was inactive. `Cc1cc(C)c(C#N)c(SCc2ccc(C#N)cc2)n1`: the result was inactive. On to `CSc1oc(-c2ccco2)nc1S(=O)(=O)c1ccc(F)cc1`, for which the outcome was inactive. With `N#CCSc1ncnc2sc3c(c12)CCC3`, the outcome was inactive. For the compound `CCCCCn1c(SCC(=O)OC)nc2c1c(=O)[nH]c(=O)n2C`, the result was inactive. `c1ccc2c(c1)CCCN2c1nc2ccccc2n2cnnc12`: the result was inactive. For the compound `COc1ccc(S(=O)(=O)Nc2ccc3c(c2)OCO3)cc1OC`, the outcome was inactive. Take `Cc1sc2ncnc(SCC(=O)N3CCCC3)c2c1C`: the outcome was inactive. For the compound `CC(=O)N=c1sc2nc3ccccc3nc2n1N(C(C)=O)C(C)=O`, the outcome was inactive.

Take `Fc1ccc(-c2cc(C(F)(F)F)nc(-n3cncn3)n2)cc1`: the outcome was inactive. Consider `CCN1C(=O)c2cccc3c(S(=O)(=O)Nc4ccccn4)ccc1c23`, for which the outcome was inactive.

Consider `CCCNc1nc2c(c(=O)[nH]c(=O)n2C)n1CCc1ccccc1`, for which the result was inactive.

As for `CCn1c2ccccc2c2nc3ccccc3nc21`, the outcome was inactive. With `COc1ccc(OC)c(C(=O)COC(=O)C2CC3CCCC(C2)C3=O)c1` (stereo unspecified), the result was inactive. As to `CCN(CCCNC(=O)CN(C)S(=O)(=O)c1cccc2nsnc12)c1cccc(C)c1`, the result was inactive. With `c1ccc(C2CC(c3ccccc3)n3ncnc3N2)cc1` (stereo unspecified), the result was inactive. `CCN=C1SC(C(N)=O)CC(=O)N1CC` (stereo unspecified): the outcome was inactive. For `COc1ccc(C2CC(=O)Nc3ccccc3S2(=O)=O)cc1OC` (stereo unspecified), the outcome was inactive.

`CCc1ccc2[nH]c(=O)c(CN(Cc3nnnn3C3CCCC3)C3CCCCC3)cc2c1`: the outcome was inactive. Take `CC(C)Cn1c(=O)c2c(c3ccccc31)OC(C)C(=O)N2` (stereo unspecified): the result was inactive. Same read-out and setting: under `CCOC(=O)c1nn(-c2ccccc2C)c(=O)c(C#N)c1C` stands “inactive”. Still for that read-out and setting: the result for `CCOc1ccccc1NC(=O)CN(C)S(=O)(=O)c1cccc2nsnc12` reads “inactive”. Same read-out and setting: under `CCc1ccc(C2=Nn3c(nnc3-c3cccs3)SC2)cc1` stands “inactive”. On to `CCOC(=O)C1CCCN(c2nc3ccccc3nc2C(C#N)C(=O)OCC)C1` (stereo unspecified), for which the result was inactive. In the case of `COc1ncnc2c1N[C@@](C)(O)c1c(F)c(F)c(F)c(F)c1S2`, the outcome was inactive. Still for that read-out and setting: the result for `Nc1nc(SCC(=O)OCc2ccccc2)[nH]c(=O)c1NC(=O)c1ccco1` reads “inactive”. The same measure, in the same setting: under `CCOC(=O)c1cc2c(=O)n3ccccc3nc2n(CCCOC)c1=NC(=O)C(C)(C)C` stands “inactive”; under `O=C(c1ccco1)N1CCN(c2nc(C3CC3)nc3sc4c(c23)CCCC4)CC1`, “inactive”. Regarding `CCOC(=O)Nc1sc(C(=O)N(CC)CC)c(C)c1C(=O)OCC`, the result was inactive. Same read-out and setting: under `O=C(C1CCC1)N1CCc2cc(S(=O)(=O)NCc3cccnc3)ccc21` stands “inactive”; under `Cc1ccc(-n2c(SCC(=O)OC(C)C)nnc2-c2cnccn2)cc1`, “inactive”. A word on the EC50: it is the concentration at which the effect is half-maximal. For `Cc1cc(Br)c2c(c1)=C(c1sc(N3CCCCCC3)nc1O)C(=O)N=2`, the EC50 is 1030 nM. As to `CCOC(=O)N1CCN(S(=O)(=O)c2ccc3c(c2)CCN3C(=O)C2CCC2)CC1`, the outcome was inactive.

For `NC(=O)c1c(NC(=O)CSc2nnc(-c3ccco3)n2-c2ccccc2)sc2c1CCC2`, the result was inactive.

Turning to `N#CC1=C(N)N(c2ccccc2)C2=C(C(=O)CCC2)C1c1cccs1` (stereo unspecified), the result was inactive. As to `Cc1cc(NS(=O)(=O)c2ccc(NC(=O)COc3ccccc3C(C)C)cc2)no1`, the outcome was inactive. Regarding `O=S1(=O)N=C(N2CCc3ccccc3C2)c2ccccc21`, the outcome was inactive.

For `CN1CCN(CC(O)COCc2ccc3c(c2)OCO3)CC1` (stereo unspecified), the outcome was inactive. As for `CCOc1ccccc1C1CC(c2ccccc2)Nc2nc(N)nn21` (stereo unspecified), the outcome was inactive. For the compound `CCC(=O)n1nc(-c2cccnc2)nc1NCc1ccc(OC)cc1`, the result was inactive. Take `COc1ccc(CCNS(=O)(=O)c2ccc3c(c2)OCCO3)cc1OC`: the outcome was inactive. The same measure, in the same setting: under `COc1c(S(=O)(=O)n2nc(C)cc2C)ccc(Cl)c1Cl` stands “inactive”; under `CCOC(=O)c1ccc(Oc2cc(C)nc(SC)n2)cc1`, “inactive”; under `O=C(CSc1nc2ccccc2s1)NC(=O)NCc1ccco1`, “inactive”. Regarding `CCN(CC)c1nc(N)c2c(N)nc3c(c2c1C#N)CC(c1ccccc1)O3` (stereo unspecified), the outcome was inactive.

Consider `CSC1=NCCN1C(=O)Cc1cccs1`, for which the result was inactive. Take `CC(=NCc1cccnc1)C1=C(O)c2ccccc2C1=O`: the outcome was inactive.

As to `COC(=O)c1ccccc1NC(=O)COc1ccc(S(=O)(=O)N2CCCC2)cc1C`, the outcome was inactive.

As to `COc1ccc(NC(=O)c2ccc(NS(=O)(=O)c3c(C)noc3C)cc2)cc1OC`, the result was inactive.
